From the supplement of paper PMC10307832

What was measured:
Test in all cases: relative viability (nuclei count vs DMSO), 5 days (fraction); higher = more cells survive
[1] = compound: C[C@]12O[C@H](C[C@]1(O)CO)n1c3ccccc3c3c4c(c5c6ccccc6n2c5c31)CNC4=O [Lestaurtinib] + Nc1ncn([C@H]2C[C@H](O)[C@@H](CO)O2)c(=O)n1 [Decitabine] (partner 2 µM)
In short: (§1)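 One day after seeding in 1536-well plates, lung cancer cell lines were dosed by pin tool. Dosing was either single-drug or a fixed anchor-drug dose plus five library-drug doses (not always all listed) in √10 steps. After 5 days, nuclei were stained in one fix-and-stain step and counted on 4× images, and relative viability is the nuclei count of treated wells over that of vehicle wells, given as the median of duplicate plates.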

Lestaurtinib + Alpelisib = compound: C[C@]12O[C@H](C[C@]1(O)CO)n1c3ccccc3c3c4c(c5c6ccccc6n2c5c31)CNC4=O [Lestaurtinib] + Cc1nc(NC(=O)N2CCC[C@H]2C(N)=O)sc1-c1ccnc(C(C)(C)C(F)(F)F)c1 [Alpelisib] (partner 2 µM)
In short: as §1

TPCA-1 + Tozasertib = compound: C1=CC(=CC=C1C2=CC(=C(S2)NC(=O)N)C(=O)N)F [TPCA-1] + Cc1cc(Nc2cc(N3CCN(C)CC3)nc(Sc3ccc(NC(=O)C4CC4)cc3)n2)n[nH]1 [Tozasertib] (partner 0.1 µM)
In short: as §1

[2] = compound: C[C@]12O[C@H](C[C@]1(O)CO)n1c3ccccc3c3c4c(c5c6ccccc6n2c5c31)CNC4=O [Lestaurtinib] + CC(=O)c1c(C)c2cnc(Nc3ccc(N4CCNCC4)cn3)nc2n(C2CCCC2)c1=O [Palbociclib] (partner 0.5 µM)
In short: as §1

Cell Line | relative viability ([1]; first compound 0.005 µM) | relative viability ([1]; first compound 0.01581 µM) | relative viability ([1]; first compound 0.05 µM) | relative viability ([1]; first compound 0.1581 µM) | relative viability ([1]; first compound 0.5 µM) | relative viability (Lestaurtinib + Alpelisib; first compound 0.005 µM) | relative viability (Lestaurtinib + Alpelisib; first compound 0.01581 µM) | relative viability (Lestaurtinib + Alpelisib; first compound 0.05 µM) | relative viability (Lestaurtinib + Alpelisib; first compound 0.1581 µM) | relative viability (Lestaurtinib + Alpelisib; first compound 0.5 µM) | relative viability (TPCA-1 + Tozasertib; first compound 0.04 µM) | relative viability (TPCA-1 + Tozasertib; first compound 0.1265 µM) | relative viability (TPCA-1 + Tozasertib; first compound 0.4 µM) | relative viability (TPCA-1 + Tozasertib; first compound 1.265 µM) | relative viability (TPCA-1 + Tozasertib; first compound 4 µM) | relative viability ([2]; first compound 0.005 µM) | relative viability ([2]; first compound 0.01581 µM) | relative viability ([2]; first compound 0.05 µM) | relative viability ([2]; first compound 0.1581 µM) | relative viability ([2]; first compound 0.5 µM)
A549 | 0.262 | 0.253 | 0.279 | 0.318 | 0.185 | 0.802 | 0.638 | 0.518 | 0.263 | 0.0616 | – | – | – | – | – | – | – | – | – | –
SW 1573 | 0.562 | 0.601 | 0.45 | 0.352 | 0.103 | 0.822 | 0.841 | 0.401 | 0.568 | 0.379 | 0.189 | 0.162 | 0.181 | 0.132 | 0.135 | 0.373 | 0.385 | 0.298 | 0.306 | 0.113
NCI-H1975 | 0.395 | 0.39 | 0.356 | 0.36 | 0.338 | 0.658 | 0.644 | 0.372 | 0.347 | 0.212 | 0.796 | 0.697 | 0.737 | 0.407 | 0.312 | 0.617 | 0.632 | 0.406 | 0.347 | 0.25
Calu-6 | – | – | – | – | – | 1.05 | 0.873 | 0.501 | 0.381 | 0.164 | – | – | – | – | – | – | – | – | – | –
NCI-H1648 | – | 0.535 | – | 0.762 | 0.512 | – | – | – | – | – | 0.548 | 0.355 | 0.486 | 0.573 | 0.379 | – | 0.317 | – | 0.393 | 0.466
NCI-H1623 | – | – | – | – | – | – | – | – | – | – | 0.408 | 0.402 | 0.454 | 0.437 | 0.37 | – | – | – | – | –
NCI-H3122 | 0.47 | 0.582 | 0.465 | 0.453 | 0.424 | 0.92 | 0.983 | 0.932 | 0.841 | 0.48 | 0.465 | 0.37 | 0.463 | 0.329 | 0.268 | 0.201 | 0.21 | 0.2 | 0.229 | 0.22
NCI-H2347 | 0.587 | 0.651 | 0.57 | 0.512 | 0.496 | 1.1 | 1.22 | 0.91 | 0.573 | 0.606 | 0.527 | 0.52 | 0.454 | 0.599 | 0.336 | 0.433 | 0.438 | 0.535 | 0.48 | 0.501
HCC-44 | 0.967 | 0.963 | 0.926 | 1.1 | 0.745 | 0.782 | 0.973 | 0.644 | 0.834 | 0.469 | 1.07 | 0.937 | 0.889 | – | 0.294 | 0.958 | 1 | 1.04 | 1.1 | 0.732
